The supplement of paper PMC13380429

How the values were obtained:
Conditions in all cases: 72 h
HepG2 [1] = assay: relative viability EC50 (midpoint between 100% and the lowest measured viability); higher = less toxic
U2OS [2] = assay: as above
Caco-2 [3] = assay: as above
Vero E6 [4] = assay: as above
Calu-3 [5] = assay: as above
HepG2 [6] = assay: cell viability relative to DMSO; higher = less toxic
U2OS [7] = assay: as above
Caco-2 [8] = assay: as above
Vero E6 [9] = assay: as above
Calu-3 [10] = assay: as above
HepG2 [11] = assay: drug sensitivity score (DSS) for viability; higher = more toxic; extreme values may be limits of the assay
U2OS [12] = assay: as above
Caco-2 [13] = assay: as above
Vero E6 [14] = assay: as above
Calu-3 [15] = assay: as above

Compound | relative viability EC50 (HepG2 [1]) [µM] | relative viability EC50 (U2OS [2]) [µM] | relative viability EC50 (Caco-2 [3]) [µM] | relative viability EC50 (Vero E6 [4]) [µM] | relative viability EC50 (Calu-3 [5]) [µM] | cell viability (HepG2 [6]; 1 nM) [%] | cell viability (HepG2 [6]; 10 nM) [%] | cell viability (HepG2 [6]; 100 nM) [%] | cell viability (HepG2 [6]; 1000 nM) [%] | cell viability (HepG2 [6]; 10000 nM) [%] | cell viability (U2OS [7]; 1 nM) [%] | cell viability (U2OS [7]; 10 nM) [%] | cell viability (U2OS [7]; 100 nM) [%] | cell viability (U2OS [7]; 1000 nM) [%] | cell viability (U2OS [7]; 10000 nM) [%] | cell viability (Caco-2 [8]; 1 nM) [%] | cell viability (Caco-2 [8]; 10 nM) [%] | cell viability (Caco-2 [8]; 100 nM) [%] | cell viability (Caco-2 [8]; 1000 nM) [%] | cell viability (Caco-2 [8]; 10000 nM) [%] | cell viability (Vero E6 [9]; 1 nM) [%] | cell viability (Vero E6 [9]; 10 nM) [%] | cell viability (Vero E6 [9]; 100 nM) [%] | cell viability (Vero E6 [9]; 1000 nM) [%] | cell viability (Vero E6 [9]; 10000 nM) [%] | cell viability (Calu-3 [10]; 1 nM) [%] | cell viability (Calu-3 [10]; 10 nM) [%] | cell viability (Calu-3 [10]; 100 nM) [%] | cell viability (Calu-3 [10]; 1000 nM) [%] | cell viability (Calu-3 [10]; 10000 nM) [%] | drug sensitivity score (HepG2 [11]) | drug sensitivity score (U2OS [12]) | drug sensitivity score (Caco-2 [13]) | drug sensitivity score (Vero E6 [14]) | drug sensitivity score (Calu-3 [15])
CC(=O)OCC(=O)[C@@]1(O)CC[C@H]2[C@@H]3CCC4=CC(=O)C=C[C@]4(C)[C@@]3(F)[C@@H](O)C[C@@]21C [isoflupredone-acetate] | > 10 | > 10 | > 10 | > 10 | > 10 | 102 | 92.3 | 102 | 99.2 | 104 | 96.4 | 98.2 | 94.5 | 99.4 | 105 | 104 | 96.9 | 97 | 103 | 102 | 100 | 101 | 96 | 94.5 | 107 | 92.6 | 97.2 | 82.4 | 93.2 | 107 | 0 | 0 | 0 | 0 | 0
CC[C@H](C)[C@H]1O[C@]2(CC[C@@H]1C)C[C@@H]1C[C@@H](C/C=C(\C)[C@@H](O[C@H]3C[C@H](OC)[C@@H](O[C@H]4C[C@H](OC)[C@@H](O)[C@H](C)O4)[C@H](C)O3)[C@@H](C)/C=C/C=C3\CO[C@@H]4[C@H](O)C(C)=C[C@@H](C(=O)O1)[C@]34O)O2 [ivermectin] | > 10 | > 10 | > 10 | > 10 | > 10 | 96.2 | 98.5 | 108 | 107 | 85 | 104 | 95.1 | 99.4 | 96.1 | 93.9 | 94.7 | 90.3 | 94.2 | 95.8 | 108 | 107 | 103 | 106 | 103 | 87.8 | 101 | 107 | 88.1 | 97.1 | 93.6 | 0.1 | 0 | 0 | 0 | 0
CC(CCc1ccccc1)NCC(O)c1ccc(O)c(C(N)=O)c1 (stereo not given) [labetalol] | > 10 | > 10 | > 10 | > 10 | > 10 | 105 | 100 | 102 | 90.5 | 99.6 | 97.6 | 105 | 98.6 | 101 | 99.7 | 88.3 | 85.3 | 89.4 | 91.2 | 110 | 97.3 | 97.2 | 96.3 | 92 | 103 | 98.7 | 107 | 94.8 | 103 | 101 | 0 | 0 | 0 | 0 | 0
CC(C)=CCC[C@](C)(O)[C@@H]1CC=C(C)CC1 [levomenol] | > 10 | > 10 | > 10 | > 10 | > 10 | 99.8 | 100 | 116 | 98.1 | 106 | 96.2 | 100 | 96.4 | 104 | 103 | 101 | 103 | 82.6 | 110 | 95.1 | 94.6 | 96.5 | 99 | 98.8 | 108 | 97.9 | 98.2 | 97.2 | 94.3 | 100 | 0 | 0 | 0 | 0 | 0
N#Cc1cc(NC(=O)C(=O)O)c(Cl)c(NC(=O)C(=O)O)c1 [lodoxamide] | > 10 | > 10 | > 10 | > 10 | > 10 | 102 | 107 | 92.7 | 93.3 | 93.6 | 104 | 102 | 97.2 | 102 | 98.1 | 106 | 119 | 99.8 | 118 | 128 | 101 | 99.9 | 98.6 | 97.8 | 93.8 | 109 | 100 | 92.1 | 96.4 | 99.4 | 0 | 0 | 0 | 0 | 0
CC1=CC(=O)c2ccccc2C1=O [menadione] | > 10 | > 10 | > 10 | > 10 | > 10 | 102 | 100 | 116 | 106 | 99 | 95.4 | 101 | 96.4 | 99.7 | 93.1 | 100 | 103 | 100 | 104 | 94.2 | 104 | 104 | 99.9 | 102 | 95.1 | 95.8 | 104 | 112 | 97.9 | 106 | 0 | 0 | 0 | 0 | 0
CCC(=O)O[C@]1(C(=O)COC(C)=O)CC[C@H]2[C@@H]3C[C@H](C)C4=CC(=O)C=C[C@]4(C)[C@H]3[C@@H](O)C[C@@]21C [methylprednisolone-aceponate] | > 10 | > 10 | > 10 | > 10 | > 10 | 92.1 | 101 | 91.1 | 101 | 99.3 | 101 | 94.3 | 98.5 | 96.9 | 98.1 | 89.6 | 95.1 | 97.4 | 96.5 | 105 | 88 | 100 | 92.6 | 98.3 | 104 | 101 | 91.6 | 91.1 | 95.1 | 96.5 | 0 | 0 | 0 | 0 | 0
COc1ccc2cc1Oc1cc3c(cc1OC)CC[N+](C)(C)[C@H]3Cc1ccc(cc1)Oc1c(OC)c(OC)cc3c1[C@@H](C2)[N+](C)(C)CC3 [metocurine] | > 10 | > 10 | > 10 | > 10 | > 10 | 93.3 | 115 | 86.2 | 108 | 111 | 97.6 | 99.3 | 106 | 102 | 99.4 | 95.7 | 92.2 | 94.8 | 108 | 105 | 91.5 | 96.8 | 91.6 | 102 | 105 | 102 | 88.4 | 105 | 96.5 | 93.2 | 0 | 0 | 0 | 0 | 0
CNC[C@@H]1CC[C@@H](N)[C@@H](O[C@H]2[C@H](O)[C@@H](O[C@H]3OC[C@](C)(O)[C@H](NC)[C@H]3O)[C@H](N)C[C@@H]2N)O1 [micronomicin] | > 10 | > 10 | > 10 | > 10 | > 10 | 93.8 | 96.8 | 105 | 100 | 106 | 96 | 104 | 99.1 | 102 | 99.3 | 98.4 | 96.1 | 104 | 96 | 97.5 | 98.9 | 99.8 | 98.6 | 99.4 | 99.4 | 105 | 113 | 105 | 98 | 95.5 | 0 | 0 | 0 | 0 | 0
CCCCCNCC(N)=O [milacemide] | > 10 | > 10 | > 10 | > 10 | > 10 | 109 | 97.9 | 95.2 | 94.6 | 110 | 103 | 100 | 98.3 | 101 | 98.6 | 100 | 90.8 | 91.4 | 99.6 | 95.5 | 99.9 | 105 | 104 | 97.3 | 101 | 108 | 113 | 107 | 99.6 | 95 | 0 | 0 | 0 | 0 | 0
c1ccc2c(c1)OC[C@H](CNCCCOc1ccc3c(c1)OCO3)O2 [osemozotan] | > 10 | > 10 | > 10 | > 10 | > 10 | 99.1 | 105 | 112 | 97 | 106 | 96.9 | 99.2 | 96.9 | 101 | 94.2 | 90.5 | 108 | 101 | 96.5 | 114 | 106 | 104 | 103 | 85.3 | 100 | 94 | 103 | 109 | 108 | 95.9 | 0 | 0 | 0 | 0 | 0
